The nature of data set [1]: Distribution coefficient (Log D) in octanol/PBS pH 7.4. The data set is classed as physicochemical. The following applies: average of three experiments, read-out: Log D7.4. The method, then: Octanol and Phosphate-buffered saline (PBS) solution at a ratio of 1:1 (v/v) at pH 7.4 was shaken mechanically for 24 h to reach presaturation. Crescent octanol volumes (100–400 μl) were added to PBS (396 μl) and thiadiazole 9f (25 mM) in a volume of 4 μl. This solution was shaken for 2 h and centrifuged (3,000 rpm) for 5 min, and the PBS layer was collected 1 h later. To measure the PBS layer absorbance, a 100-μl aliquot (396 μl of PBS containing 4 μl of 9f + 400 μl of acetonitrile) was partitioned with acetonitrile (100 μl; Faria et al., [2018]).

Data set [2] has as its system P2X7R-mediated IL-1β release. Briefly: ATP-induced IL-1β release (ELISA) in differentiated THP-1 cells. The data set is classed as cell-based, human.
Experimental: P2X7R-mediated IL-1β release was obtained from differentiated THP-1 cells stimulated with lipopolysaccharide (LPS) before ATP addition. […] THP-1 cells were differentiated with 500 ng/ml phorbol 12-myristate 13-acetate (PMA) and 10 ng/ml IFN-γ cotreatment for 24 h. These cells were activated with 25 ng/ml LPS for 4 h. […] P2X7R antagonists (BBG and A740003) and thiadiazole analogs were added 30 min before the ATP stimulus. The supernatants were collected, centrifuged (1,000 rpm for 5 min at 4°C), and stored at −70°C after LPS incubation. IL-1β was quantified using a standard kit (ABCAM, Cambridge).
Another data set has as its target T1, P2X7R (Mus musculus, UniProt Q9Z1M0).
T1 construct: plated for 24 h before dye uptake assays, whole-cell patch clamp experiments, and IL-1β release assays; endogenous in cells; host or cells: mouse (Swiss Webster) peritoneal macrophages
T1 sequence (Q9Z1M0 1-595): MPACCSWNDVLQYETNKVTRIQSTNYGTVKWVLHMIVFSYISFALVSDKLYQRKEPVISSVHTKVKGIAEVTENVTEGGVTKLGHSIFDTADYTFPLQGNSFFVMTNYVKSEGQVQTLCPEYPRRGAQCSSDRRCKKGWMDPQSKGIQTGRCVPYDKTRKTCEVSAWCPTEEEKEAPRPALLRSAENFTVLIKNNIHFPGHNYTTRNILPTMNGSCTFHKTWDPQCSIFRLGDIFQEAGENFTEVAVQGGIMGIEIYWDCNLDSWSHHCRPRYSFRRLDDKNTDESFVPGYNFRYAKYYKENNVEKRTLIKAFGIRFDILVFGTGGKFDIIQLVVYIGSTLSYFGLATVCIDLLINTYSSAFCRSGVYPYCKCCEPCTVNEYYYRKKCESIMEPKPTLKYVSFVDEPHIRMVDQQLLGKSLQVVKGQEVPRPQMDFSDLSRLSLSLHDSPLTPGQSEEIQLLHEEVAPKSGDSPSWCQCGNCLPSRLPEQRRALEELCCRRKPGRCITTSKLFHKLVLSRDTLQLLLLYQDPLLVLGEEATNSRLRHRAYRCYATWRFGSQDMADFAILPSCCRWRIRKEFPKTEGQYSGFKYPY
Briefly: Dye uptake assay (propidium iodide) in mouse peritoneal macrophages. The data set is classed as cell-based. Particulars: mean ± SD; for inhibition at 10 µM: percentage relative to the maximum uptake of propidium stimulated by 1 mM ATP only; for IC50: propidium uptake assay, mice peritoneal macrophages. As to the method:
Our protocols adhered to the Ethical Principles in Animal Experimentation adopted by the Brazilian College of Animal Experimentation and approved by the FIOCRUZ Research Ethics Committee (Faria et al., [2005]; number L039- 2016). Male mouse (Swiss Webster) peritoneal macrophages were collected from peritoneal cavity lavage and plated for 24 h before dye uptake assays, whole-cell patch clamp experiments, and IL-1β release assays.
HEK-293 cells transfected with hP2X7R and mouse peritoneal macrophages were plated at 2.5 × 10^6 or 5 × 10^5 cells/ml, respectively, in 96-well culture plates containing DMEM with 10% FBS and anti-biotics (50 U/ml penicillin and […] streptomycin) in a humidified 5% CO2 atmosphere at 37°C for 24 h (Faria et al., [2018]).
[…] In the last 5 min of ATP incubation, propidium iodide for macrophages (PI; 750 nM) or ethidium bromide (EB; 25 μM) for HEK-293 cells was added to all wells. PI dye was excited at a wavelength of 530 nm, and its fluorescence emission was read at a wavelength of 590 nm using an M5 plate reader (Molecular Devices). EB dye was excited at a wavelength of 530 nm and emitted at a wavelength of 620 nm.

A short description of data set [3]: Stability in mouse liver microsomes. The data set is classed as in vitro ADME. Particulars: male, pH 7.4, read-out: LM stability mouse (CLint). As to the method:
Thiadiazole 9f stability was evaluated in liver microsomes from male mice and humans according to Faria et al. in 2018 (Faria et al., [2018]). Both solutions contained a final protein concentration of 0.5 mg/ml (0.1 M phosphate buffer) at pH 7.4. Microsomes were preincubated with 9f (1 μM) and DMSO ([…]) at 37°C before NADPH (1 mM) addition. A control for the reaction was a buffer containing 0.1 M phosphate at pH 7.4 in a final volume of 50 μl. Diazepam and verapamil were used as positive controls for mice and humans, respectively. Both types of microsomes were treated with 9f for 0, 5, 15, 30, and 45 min and the negative control [minus Nicotinamide adenine dinucleotide phosphate (NADPH)] for 45 min. To stop the reactions, methanol (50 μl) was added at the appropriate time points, and the samples were centrifuged (1,640 × g) for 20 min at 4°C to […] protein precipitation.
In vitro intrinsic clearance (CLint mic) for the metabolism of 9f in mouse and human liver microsomes was calculated using the equations below:
Half-life (t1/2) (minutes) = 0.693/k (1)
V(μL/mg) = volume of the incubation solution (μl)/protein in the incubation solution (mg) (2)
Intrinsic clearance (CLint) (μl/minutes/mg protein) = V × 0.693/t1/2 (3) according to the manufacturer's instructions.

For data set [4], the system named is mouse peritoneal macrophages. As to the kind of experiment: LDH release assay (toxicity). The data set is classed as cell-based. The following applies: 10 μM; relative to maximum LDH release caused by 0.05% Triton X-100; cell type not given; mean ± SD. As to the method: Mouse peritoneal macrophages (5 × 10^5 cells) and HEK-293 cells transfected with P2X7R (5 × 10^5 cells) were plated in a 96-well-plate for 24 h before the treatment. […] The supernatant collected in this assay was used to measure the presence of LDH in the media using a cytotoxicity detection kit (Sigma kit for LDH) according to the manufacturer's instructions (Faria et al., [2018]).

[5] abbreviates: ATP-induced IL-1β release, LPS/IFN-differentiated human THP-1 cells, read-out: THP-1 cells IC50.

Like-named read-outs stand apart in the source and are kept apart here.

In the case of `N#Cc1cnn(-c2nnc(-c3ccccc3Cl)s2)c1N` [Compound 9b], the melting point lay in the range of 250 to 251 °C. In addition, the logD in data set [1] was -1.2 ± 0.1. Moreover, the 50% inhibitory concentration (IC50) in data set [2] (setting [5]) was 298 ± 8 nM. In data set [2] (IL-1β release, THP-1 cells), the “Potency relative to BBG (times more potent)” value (“Potency relative to BBG” below) is reported as “approximately 10 times”. At P2X7R, this compound gave an inhibition at 10 µM of 30 ± 0.6% and an IC50 of 111 ± 9 nM. In addition, in data set [3], the microsomal CLint at 1 μM is 14.3 µL/min/mg. Besides, the “% LDH release” value in data set [4] amounted to 15.8 ± 1.3%.

`N#Cc1cnn(-c2nnc(-c3ccc(F)cc3)s2)c1N` [Compound 9c]: the melting point lay within 262 to 263 °C. The logD in data set [1] was -0.9 ± 0.1. Also, the IC50 in data set [2] (setting [5]) is 279 ± 35 nM. Further, in data set [2] (IL-1β release, THP-1 cells), the “Potency relative to BBG” value is recorded as “approximately 10 times”. At P2X7R, at 10 µM the inhibition was 28.2 ± 0.7% and the IC50 came to 109 ± 11 nM. In data set [3], the microsomal CLint at 1 μM was 11.6 µL/min/mg. Moreover, in data set [4], the “% LDH release” value was found to be 10 ± 0.7%.

In turn, `CCOC(=O)c1cnn(-c2nnc(-c3ccccc3Cl)s2)c1N` [Compound 9f] returned a melting point of 190 to 191 °C. For the same compound, the logD in data set [1] is -3.7 ± 0.2. Further, in data set [2] (setting [5]), the IC50 was determined as 19 ± 3 nM. In addition, the IC50 in data set [2] (Homo sapiens, THP-1 cells, read-out: IC50, IL-1β release) was in the range of 20 to 300 nM. For the same compound, in data set [2] (IL-1β release, THP-1 cells), the “Potency relative to A740003” value is reported as greater than 10 times and the “Potency relative to BBG” value is recorded as “more than 20 times”. In addition, on P2X7R, testing at 10 µM gave an inhibition of 15.7 ± 0.6% and the IC50 worked out at 16 ± 2 nM. Further, in data set [3], the microsomal CLint at 1 μM came out at 26.7 µL/min/mg. Besides, the “% LDH release” value in data set [4] is listed as 42.5 ± 0.4%.

`Cc1cc(C)n(-c2nnc(-c3ccc(F)cc3)s2)n1` [Compound 11c, 2-(3,5-dimethyl-1H-pyrazol-1-yl)-5-(4-fluorophenyl)-1,3,4-thiadiazole] gave a melting point of 174 °C. Besides, the logD in data set [1] was -4.2 ± 0.4. The IC50 in data set [2] (setting [5]) is 240 ± 17 nM. Besides, the “Potency relative to BBG” value in data set [2] (IL-1β release, THP-1 cells) is recorded as “approximately 10 times”. Besides, on P2X7R, the inhibition at 10 µM came to 29.2 ± 0.3% and the IC50 was 122 ± 13 nM. Further, the microsomal CLint at 1 μM in data set [3] is 38.5 µL/min/mg. Further, the “% LDH release” value in data set [4] worked out at 24 ± 1.7%.

`COc1ccc(CC(=O)NC(NC(=NC#N)Nc2cccc3ncccc23)C(C)(C)C)cc1OC` (stereo not drawn) [Compound A740003, N-(1-{[(cyanoimino)(5-quinolinylamino)methyl]amino}-2,2-dimethylpropyl)-2-(3,4-dimethoxyphenyl)acetamide]: the IC50 in data set [2] (setting [5]) amounted to 223 ± 18 nM; against P2X7R it was 108 ± 16 nM.
